From patent US20230014226A1, “NEW COMPOUNDS AND METHODS” (BenevolentAI Bio Limited, priority 2019, published 2023)
Entries after “also recorded” stand apart in the source; their conditions may differ.

What was measured:
[1] = target: T1, recombinant human P450 enzyme 1A1 (Homo sapiens, UniProt P04798); test: Formation of reactive metabolites (glutathione adduct) by CYP1A1 with human liver cytosol; format: in vitro ADME; conditions: human liver cytosol + recombinant CYP1A1, NADPH and GSH
T1 construct: host or cells: Bacterial membranes (bactosomes), inferred from the named control preparation
T1 sequence (P04798 1-512): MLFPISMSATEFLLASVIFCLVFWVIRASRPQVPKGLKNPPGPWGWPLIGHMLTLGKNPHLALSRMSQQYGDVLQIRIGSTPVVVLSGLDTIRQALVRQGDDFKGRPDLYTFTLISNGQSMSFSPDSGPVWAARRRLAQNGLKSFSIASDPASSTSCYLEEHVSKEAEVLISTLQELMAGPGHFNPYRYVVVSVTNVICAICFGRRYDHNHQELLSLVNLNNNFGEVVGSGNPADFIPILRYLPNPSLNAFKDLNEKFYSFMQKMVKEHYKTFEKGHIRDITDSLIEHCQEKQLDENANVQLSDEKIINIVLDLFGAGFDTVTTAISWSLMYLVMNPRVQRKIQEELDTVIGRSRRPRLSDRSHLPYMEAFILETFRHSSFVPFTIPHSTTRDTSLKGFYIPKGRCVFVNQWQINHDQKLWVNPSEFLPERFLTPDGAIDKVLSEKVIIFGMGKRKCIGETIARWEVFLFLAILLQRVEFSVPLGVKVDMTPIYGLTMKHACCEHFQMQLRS
Protocol: Investigations into the potential for test compound to form a reactive metabolite were performed using an adapted method detailed by De Lin et al. Briefly, test compound was pre-incubated (n=2; 50 μM substrate concentration) at 37° C. for 5 min with mixed-gender human liver cytosol (1 mg/mL total protein concentration) in 100 mM phosphate buffer (pH 7.4) with 5 mM MgCl2 in the presence of recombinant human P450 enzyme 1A1 (100 nM), in the presence and absence of 5 mM glutathione. At the end of the pre-incubation period, 2 mM NADPH was added to each sample and the mixture incubated at 37° C. for 60 min. Immediately following the addition of NADPH and after the 60 min incubation period, aliquots of each sample were mixed with MeCN (containing internal standard) to terminate the reaction and precipitate the proteins.
Samples were mixed, centrifuged and following appropriate dilution, supernatants were analysed by LC-MS utilising a high-resolution mass spectrometer to perform metabolite identification and characterisation analysis.

[2] = test system: α-synuclein in ReNcell VM Neuronal cells; test: Modulation of α-synuclein aggregation; format: cell-based
Protocol: Compounds were assessed for their ability to modulate α-synuclein aggregation. ReNcell VM Neuronal cells were transduced with α-synuclein encoded adenovirus, and compounds were added after 24 hours. After 72 hours, compound was refreshed. After an additional 72 h, cells were fixated (a total of 6 days of compound treatment). Two distinct α-synuclein antibodies were added (Syn205 and MJF-14), imaging was performed on IN Cell 2200 at 10× magnification. Immunoreactivity is quantified by a high content algorithm. Compound data is normalized to a negative control (0.1% DMSO) and a positive control (10 μM KU0063794; CAS 938440-64-3).

hERG ion channel = hERG ion channel (Homo sapiens, UniProt Q12809); test: hERG QPatch automated patch clamp; format: cell-based; conditions: CHO cells stably expressing hERG, QPatch 48, tail current
Protocol: hERG IC50 data was supplied by Metrion using their standard assay protocol briefly detailed below.
hERG ion channel screening was assayed in CHO cells stably expressing the human ether-á-go-go related gene, using the QPatch 48 automated, chip-based planar patch clamp device. A Gigaohm seal between the cell membrane and treated silicon surface was obtained and specific external and internal buffered solutions applied to cells prior to recording. Following baseline vehicle treatment, compounds were applied in increasing concentrations (8 pt CRC), effects on hERG tail current amplitudes were measured in two-minute recordings.

Sequence of hERG ion channel (Q12809 whole entry): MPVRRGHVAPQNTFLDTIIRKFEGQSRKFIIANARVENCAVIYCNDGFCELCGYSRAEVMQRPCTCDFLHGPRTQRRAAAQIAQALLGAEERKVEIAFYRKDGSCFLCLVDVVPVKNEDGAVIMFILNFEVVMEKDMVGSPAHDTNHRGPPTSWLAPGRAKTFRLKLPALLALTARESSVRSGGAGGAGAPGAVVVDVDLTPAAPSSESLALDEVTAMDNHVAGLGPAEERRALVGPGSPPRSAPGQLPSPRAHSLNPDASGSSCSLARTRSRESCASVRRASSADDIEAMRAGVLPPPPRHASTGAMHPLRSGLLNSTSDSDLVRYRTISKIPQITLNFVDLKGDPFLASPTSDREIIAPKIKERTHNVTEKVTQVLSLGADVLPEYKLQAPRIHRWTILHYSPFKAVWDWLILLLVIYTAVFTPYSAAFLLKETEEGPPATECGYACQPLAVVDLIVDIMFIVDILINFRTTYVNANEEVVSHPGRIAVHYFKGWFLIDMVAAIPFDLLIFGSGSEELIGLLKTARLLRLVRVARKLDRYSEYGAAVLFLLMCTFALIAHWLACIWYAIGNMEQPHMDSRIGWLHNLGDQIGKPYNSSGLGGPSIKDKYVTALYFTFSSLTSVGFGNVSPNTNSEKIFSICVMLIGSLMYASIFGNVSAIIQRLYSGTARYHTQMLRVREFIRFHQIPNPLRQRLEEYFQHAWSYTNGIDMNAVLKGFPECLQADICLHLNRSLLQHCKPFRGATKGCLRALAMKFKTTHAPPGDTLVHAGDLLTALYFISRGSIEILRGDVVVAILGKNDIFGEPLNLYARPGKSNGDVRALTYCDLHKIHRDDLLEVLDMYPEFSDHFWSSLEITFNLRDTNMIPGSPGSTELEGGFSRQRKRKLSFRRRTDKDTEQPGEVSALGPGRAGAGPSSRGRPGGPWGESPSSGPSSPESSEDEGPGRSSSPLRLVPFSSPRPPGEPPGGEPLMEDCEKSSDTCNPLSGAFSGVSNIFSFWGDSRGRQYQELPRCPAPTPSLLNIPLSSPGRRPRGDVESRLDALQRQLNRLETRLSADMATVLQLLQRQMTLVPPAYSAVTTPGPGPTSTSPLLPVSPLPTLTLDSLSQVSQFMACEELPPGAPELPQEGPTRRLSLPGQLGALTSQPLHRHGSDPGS

metabolites identified as products of oxidation and glutathione conjugation [1]: Two very minor metabolites
IC50 ([2]; ReNcell VM, 100% = reduction equal to 10 μM KU0063794, 0% = 0.1% DMSO): 1 to 10 µM
Compound: Cc1ccc(C(=O)Nc2cn(C(C)C)cn2)cc1C#Cc1cccnc1 [Example 25, N-(1-isopropylimidazol-4-yl)-4-methyl-3-[2-(3-pyridyl)ethynyl]benzamide]
formation of direct glutathione adduct ([1]; 50 μM, 60 min): does not form a glutathione adduct; also recorded: no products of direct glutathione conjugation were observed
amount of α-synuclein present in ReNcell VM neuronal cells (FIG. 4) ([2]; 6 days of compound treatment, antibodies Syn205 and MJF-14): dose dependant reduction
IC50 (hERG ion channel): > 10 µM
